# Patent EP0515684A1, “INHIBITOR OF DENATURED LDL FORMATION” (Chugai Seiyaku Kabushiki Kaisha, priority 1990, dated 1991)
# Test system: rabbit LDL
# Experiment: Amount of thiobarbituric acid reactive substances (TBARS) formed on Cu2+ oxidation of LDL
# Assay type: biochemical
# Conditions: 5 µM of Cu²⁺ added to rabbit LDL, followed by heating
# Procedure: The biological properties of the compounds as shown hereinafter were examined by the following methods. • (1) The amount of thiobarbituric acid reactive substances: 5 µM of Cu²⁺ was added to rabbit LDL, prepared by the method reported by Havel et al., followed by heating. Then the antioxidative effect of each compound was examined by using the thiobarbituric acid reactive substances (TBARS) thus formed as the guidance. […] 0.5 ml of an n-butanol solution containing 0.2 µM of MCLA and 10 mM of linoleic acid was introduced into a vial for luminescence analysis and the luminescence due to autoxidation was measured in a thermostat at 37°C. […] To the obtained plasma, were added EDTA-NaN₃ (a 5% solution of pH 7.4) and a benzamidine solution (60 mg/ml) respectively in amounts of 0.8 ml and 0.5 ml per 100 ml of the plasma. Then rabbit or human LDL (1.019 < d < 1.063) was prepared by ultracentrifugation in accordance with the method of Havel et al.*. After performing the ultracentifugation again, the LDL was washed and concentrated. Then it was dialyzed against a 150 mM NaCl - 2 mM Na₂HPO₄ solution at 4°C and KBr was removed. The protein content was determined by Lowry method** and then the LDL was subjected to the subsequent procedure. (Measurement of electrophoretic mobility in agarose gel) 10 µM of Cu²⁺ and a specimen were added to an LDL-containing solution (3.00 µg protein/ml). After incubating at 37°C for approximately 24 hours, a portion (1 µl) thereof was applied onto an agarose gel film (Universal Film, manufactured by Corning Co.) and then subjected to electrophoresis (Agarose Gel Electrophoresis System for Lipoprotein, manufactured by Corning Co.). Thus the mobility was measured by staining lipids with Fat Red 7B. […] After 3 days, peritoneal macrophages were collected from the mouse and incubated in an RPMI 1640 medium containing 10% of FBS. The macrophages were used in the • examination on the next day.
SMILES,"Formed TBARS (%) (Compound conc. 10^-5 M, 10 µM)","Formed TBARS (%) (Compound conc. 10^-6 M, 1 µM)"
"CCCCC(Nc1cc(OC)c(OC)c(OC)c1)c1ccccc1 (stereo not drawn) [Compound 77, N-(1-phenylpentyl)-3,4,5-trimethoxyaniline]",17,31
COc1cc(NCc2ccccc2SCCC(C)CCCC(C)C)cc(OC)c1OC (stereo not drawn) [Compound 50],17,70
COc1cc(N(CCCc2ccccc2)Cc2c(F)c(F)c(F)c(F)c2F)cc(OC)c1OC [Compound 30],26,57
COc1cc(NC2CCC3CCCCC3C2)cc(OC)c1OC (stereo not drawn) [Compound 110],7,16
COc1cc(NCc2ccc(C)c(C)c2)cc(OC)c1OC [Compound 10],9,25
COc1cc(NCC=Cc2ccccc2)cc(OC)c1OC [Compound 85],20,64
CCCCCCCCCCCCOc1ccc(CNc2cc(OC)c(OC)c(OC)c2)cc1OCCCCCCCCCCCC [Compound 43],62,94
COc1cc(NCc2cccs2)cc(OC)c1OC [Compound 97],24,44
COc1cc(NCc2ccccc2OCCC(C)CCCC(C)C)cc(OC)c1OC (stereo not drawn) [Compound 45],15,80
COc1cc(CNc2cc(OC)c(OC)c(OC)c2)cc(OC)c1OC [Compound 35],28,52
CCCCCCCCCCCCNc1cc(OC)c(OC)c(OC)c1 [Compound 113],29,66
COC(=O)c1ccc(CNc2cc(OC)c(OC)c(OC)c2)cc1 [Compound 60],17,46
CCOC(=O)C(C)(C)Oc1ccc(CNc2cc(OC)c(OC)c(OC)c2)cc1 [Compound 55],20,46
COc1cc(NCCCCc2ccccc2)cc(OC)c1OC [Compound 71],7,20
COc1cc(NCc2nccn2CC=C(C)CCC=C(C)CCC=C(C)C)cc(OC)c1OC [Compound 100],13,81
CCOC(=O)CCCCCCOc1ccc(CNc2cc(OC)c(OC)c(OC)c2)cc1 [Compound 53],13,38
C=CCC(Nc1cc(OC)c(OC)c(OC)c1)C1CCCCC1 (stereo not drawn) [Compound 107],7,20
COc1cc(N(CC2CCCCC2)CC2CCCCC2)cc(OC)c1OC [Compound 104],23,31
COc1cc(NCCC(C)CCCC(C)CCCC(C)CCCC(C)C)cc(OC)c1OC (stereo not drawn) [Compound 115],15,71
COc1cc(NCc2ccc(CO)cc2)cc(OC)c1OC [Compound 67],35,55

SMILES,"Formed TBARS (%) (Compound conc. 10^-5 M, 10 µM)","Formed TBARS (%) (Compound conc. 10^-6 M, 1 µM)"
CCCCCCOc1ccc(CNc2cc(OC)c(OC)c(OC)c2)cc1 [Compound 41],16,63
CCCCCCCCOc1ccc(CNc2cc(OC)c(OC)c(OC)c2)cc1 [Compound 42],19,72
"COc1cc(N(C)Cc2ccccc2)cc(OC)c1OC [Compound 2, N-benzyl-N-methyl-3,4,5-trimethoxyaniline]",31,56
C=CCC(Nc1cc(OC)c(OC)c(OC)c1)c1ccccc1 (stereo not drawn) [Compound 80],17,33
CCCC(Nc1cc(OC)c(OC)c(OC)c1)C1CCCCC1 (stereo not drawn) [Compound 106],8,16
COc1cc(NCc2ccc(CNc3cc(OC)c(OC)c(OC)c3)cc2)cc(OC)c1OC [Compound 57],12,34
COc1cc(NCc2ccc[nH]2)cc(OC)c1OC [Compound 94],63,87
COc1cc(NCc2c(F)c(F)c(F)c(F)c2F)cc(OC)c1OC [Compound 29],20,39
COc1cc(N(CC=C(C)CCCC(C)CCCC(C)CCCC(C)C)Cc2ccccc2)cc(OC)c1OC (stereo not drawn) [Compound 9],57,78
COc1cc(N(CC=C(C)C)CC=C(C)C)cc(OC)c1OC [Compound 117],35,63
COc1cc(NCc2ccccn2)cc(OC)c1OC [Compound 98],43,79
C=CCN(Cc1ccco1)c1cc(OC)c(OC)c(OC)c1 [Compound 96],43,67
CCCCCCCCCCCCN(CCCCCCCCCCCC)c1cc(OC)c(OC)c(OC)c1 [Compound 114],93,94
CCCCCCCCC(Nc1cc(OC)c(OC)c(OC)c1)c1ccccc1 (stereo not drawn) [Compound 79],19,46
COc1cc(NCc2cccc(Oc3ccccc3)c2)cc(OC)c1OC [Compound 51],16,32
COc1cc(NCc2ccco2)cc(OC)c1OC [Compound 95],29,66
COc1cc(NCc2ccc([N+](=O)[O-])cc2)cc(OC)c1OC [Compound 64],17,38
CCCCC(Nc1cc(OC)c(OC)c(OC)c1)C1CCCCC1 (stereo not drawn) [Compound 108],8,21
COc1cc(NCc2ccc(OC(C)(C)C(=O)O)cc2)cc(OC)c1OC [Compound 56],59,77
COc1cc(NCc2cccc(Br)c2)cc(OC)c1OC [Compound 27],12,29

SMILES,"Formed TBARS (%) (Compound conc. 10^-5 M, 10 µM)","Formed TBARS (%) (Compound conc. 10^-6 M, 1 µM)"
COc1cc(NCC2CCCCC2)cc(OC)c1OC [Compound 103],8,23
COc1cc(NCc2ccc(OCCCCCCC(=O)O)cc2)cc(OC)c1OC [Compound 54],16,46
COc1cc(NCc2ccc(OC/C=C(\C)CCCC(C)CCCC(C)CCCC(C)C)cc2)cc(OC)c1OC (stereo not drawn) [Compound 48],40,90
COc1cc(NCc2ccc(Br)cc2)cc(OC)c1OC [Compound 26],12,27
COc1cc(NCC=C(C)C)cc(OC)c1OC [Compound 116],33,61
CCCCCCC(Nc1cc(OC)c(OC)c(OC)c1)c1ccccc1 (stereo not drawn) [Compound 78],14,29
COc1cc(NCc2ccc(Oc3ccccc3)cc2)cc(OC)c1OC [Compound 52],13,43
COc1cc(NC2CCCc3ccccc32)cc(OC)c1OC (stereo not drawn) [Compound 90],9,26
COc1cc(NC(CC(C)C)c2ccccc2)cc(OC)c1OC (stereo not drawn) [Compound 81],15,25
COc1cc(NC(c2ccccc2)c2ccccc2)cc(OC)c1OC [Compound 82],15,34
COc1cc(N(CC=Cc2ccccc2)CC=Cc2ccccc2)cc(OC)c1OC [Compound 86],27,52
COc1cc(NCc2cccnc2)cc(OC)c1OC [Compound 99],47,79
"CCN(Cc1ccccc1)c1cc(OC)c(OC)c(OC)c1 [Compound 3, N-benzyl-N-ethyl-3,4,5-trimethoxyaniline]",35,51
COc1cc(NC2CCOc3ccccc32)cc(OC)c1OC (stereo not drawn) [Compound 101],18,41
COc1cc(NCCCc2ccc(CO)cc2)cc(OC)c1OC [Compound 75],16,38
COc1cc(NCCc2ccccc2)cc(OC)c1OC [Compound 69],18,36
COc1cc(N(CC=C(C)CCC=C(C)C)Cc2ccccc2)cc(OC)c1OC [Compound 8],31,55
COc1cc(NCc2ccccc2OC/C=C(\C)CCC=C(C)C)cc(OC)c1OC [Compound 46],13,69
COc1cc(NCc2ccccc2Br)cc(OC)c1OC [Compound 28],13,30
COc1cc(NC(C)C2CCCCC2)cc(OC)c1OC (stereo not drawn) [Compound 105],8,22
